Source: US6362188B1, “Farnesyl protein transferase inhibitors” (Schering Corporation, priority 1998, dated 2002)

Key:
Human tumor cells = experiment: Soft Agar Assay (anchorage-independent growth); assay type: cell-based; details: colony outgrowth in soft agar, stated as a range for the group
Method: Anchorage-independent growth is a characteristic of tumorigenic cell lines. Human tumor cells can be suspended in growth medium containing 0.3% agarose and an indicated concentration of a farnesyl transferase inhibitor. The solution can be overlayed onto growth medium solidified with 0.6% agarose containing the same concentration of farnesyl transferase inhibitor as the top layer. After the top layer is solidified, plates can be incubated for 10-16 days at 37° C. under 5% CO2 to allow colony outgrowth. After incubation, the colonies can be stained by overlaying the agar with a solution of MTT (3-[4,5-dimethyl-thiazol-2-yl]-2,5-diphenyltetrazolium bromide, Thiazolyl blue) (1 mg/mL in PBS). Colonies can be counted and the IC50's can be determined.

| Structure (SMILES) | IC50 (Human tumor cells) [nM] | melting point [°C] |
| --- | --- | --- |
| Cc1cn(CC2CCCN(C(=O)C3CN(C4c5ccc(Cl)cc5CCc5cccnc54)CCN3C(=O)OC(C)(C)C)C2)cn1 (single isomer, unassigned) [Example 29] | 0.5 to 30 | 109 to 124 |
| Cc1cn(CC2CCCN(C(=O)C3CN(C4c5ccc(Cl)cc5CCc5cc(F)cnc54)CCN3C(=O)OC3CCCCC3)C2)cn1 (stereo not drawn) [Example 287] | 0.05 to 30 | 116 to 123 |
| Cc1nccn1CC1CCCN(C(=O)C2CN(C3c4ccc(Cl)cc4CCc4cccnc43)CCN2C(=O)OC(C)(C)C)C1 (single isomer, unassigned) [Example 27] | 0.5 to 30 | 110 to 119 |
| Cc1ncn(CC2CCCN(C(=O)C3CN(C4c5ccc(Cl)cc5CCc5cccnc54)CCN3C(=O)OC3CCCCC3)C2)c1C (single isomer, unassigned) [47(G)] | 0.05 to 30 | 98 to 130 |
| Cc1cn(C[C@@H]2CCCN(C(=O)[C@H]3CN([C@H]4c5ccc(Cl)cc5CCc5ccc[n+]([O-])c54)CCN3C(=O)OC3CCCCC3)C2)cn1 [Example 387] | 0.05 to 30 | 85 to 90 |
| Cc1cn(CC2CCCCN(C(=O)C3CN(C4c5ccc(Cl)cc5CCc5cccnc54)CCN3C(=O)OC3CCCCC3)C2)cn1 (stereo not drawn) [Example 47(CC)] | 0.05 to 30 | 108 to 113 |
| Cc1cn(CC2CCCN(C(=O)C3CN(C4c5ccccc5CCc5cc(Cl)cnc54)CCN3C(=O)OC(C)(C)C)C2)cn1 (stereo not drawn) [Example 292] | 0.05 to 30 | 95 to 105 |
| CC(C)(C)OC(=O)N1CCN([C@H]2c3ccc(Cl)cc3CCc3cc(Br)cnc32)C[C@@H]1C(=O)N1CCC[C@H](Cn2ccnc2)C1 [Example 11] | 0.5 to 30 | 122 to 127 |
| Cc1cn(CC2CCCN(C(=O)C3CN(C4c5ccccc5CCc5cc(Cl)cnc54)CCN3C(=O)OC(C)(C)C)C2)cn1 (single isomer, unassigned) [Example 291] | 0.05 to 30 | 99 to 107 |
| O=C([C@H]1CN([C@@H]2c3ccc(Cl)cc3CCc3cc(Br)cnc32)CCN1C(=O)OC1CCCCC1)N1CCC[C@@H](Cn2ccnc2)C1 [Example 15] | 0.5 to 30 | 140 to 144 |
| CCc1cn(CC2CCCN(C(=O)C3CN(C4c5ccc(Cl)cc5CCc5cccnc54)CCN3C(=O)OC(C)(C)C)C2)cn1 (stereo not drawn) [35(C)] | – | 104 to 106 |
| Cc1cn(CC2CCCN(C(=O)C3CN(C4c5ccc(Cl)cc5CCc5cccnc54)CCN3C(=O)OC(C)C)C2)cn1 (stereo not drawn) [Example 36] | – | 123 to 132 |
| O=C([C@H]1CN(C2c3ccc(Cl)cc3CCc3cc(Cl)cnc32)CCN1C(=O)OC1CCCCC1)N1CCCC(Oc2cccnc2)C1 (stereo partly drawn) [Example 254A] | – | 105 to 113 |
| Cc1cn(C[C@@H]2CCCN(C(=O)[C@H]3CN(C4c5ccccc5CCc5ccccc54)CCN3C(=O)OC3CCCCC3)C2)cn1 [Example 414] | – | 98 to 112 |
| CC(C)(C)NC(=O)N1CCN([C@@H]2c3ccc(Cl)cc3CCc3cc(Br)cnc32)C[C@@H]1C(=O)N1CCC[C@H](Cn2ccnc2)C1 [Example 18] | – | 112 to 120 |

More lines, now with the values ahead:

| IC50 (Human tumor cells) [nM] | melting point [°C] | Structure (SMILES) |
| --- | --- | --- |
| 0.5 to 30 | 130 to 134 | CC(C)(C)OC(=O)N1CCN([C@@H]2c3ccc(Cl)cc3CCc3cc(Br)cnc32)C[C@@H]1C(=O)N1CCC[C@H](Cn2ccnc2)C1 [Example 10] |
| 0.05 to 30 | 102 to 118 | Cc1cn(C[C@H]2CCCN(C(=O)[C@H]3CN([C@@H]4c5ccccc5CCc5cc(Cl)cnc54)CCN3C(=O)OC(C)(C)C)C2)cn1 [Example 294] |
| 0.5 to 30 | 92 to 101 | Cc1nccn1CC1CCCN(C(=O)C2CN(C3c4ccc(Cl)cc4CCc4cccnc43)CCN2C(=O)OC(C)C)C1 (single isomer, unassigned) [Example 38] |
| 0.05 to 30 | 120 to 124 | Cc1cn(C[C@@H]2CCCN(C(=O)[C@H]3CN([C@H]4c5ccccc5CCc5cc(Br)cnc54)CCN3C(=O)OC3CCCCC3)C2)cn1 [Example 351] |
| 0.05 to 30 | 115 to 118 | Cc1cn(C[C@H]2CCCN(C(=O)[C@H]3CN([C@H]4c5ccc(Cl)cc5CCc5cc(F)cnc54)CCN3C(=O)OC(C)(C)C)C2)cn1 [Example 261] |
| 0.05 to 30 | 102 to 119 | Cc1cn(C[C@@H]2CCCN(C(=O)[C@H]3CN([C@@H]4c5ccccc5CCc5cc(Br)cnc54)CCN3C(=O)OC(C)(C)C)C2)cn1 [Example 324] |
| 0.5 to 30 | 135 to 138 | CC(C)(C)OC(=O)N1CCN([C@@H]2c3ccc(Cl)cc3CCc3cc(Br)cnc32)C[C@@H]1C(=O)N1CCC[C@@H](Cn2ccnc2)C1 [Example 12] |
| 0.05 to 30 | 116 to 126 | Cc1cn(C[C@@H]2CCCN(C(=O)[C@H]3CN([C@H]4c5ccc(Cl)cc5CCc5cc(Cl)cnc54)CCN3C(=O)OC3CCCCC3)C2)cn1 [Example 255] |
| 0.05 to 30 | 121 to 125 | Cc1cn(C[C@H]2CCCN(C(=O)[C@H]3CN([C@@H]4c5ccc(Cl)cc5CCc5cc(F)cnc54)CCN3C(=O)OC3CCCCC3)C2)cn1 [Example 290] |
| 0.5 to 30 | 112 to 135 | Cc1nccn1CC1CCCN(C(=O)C2CN(C3c4ccc(Cl)cc4CCc4cccnc43)CCN2C(=O)OC2CCCCC2)C1 (single isomer, unassigned) [Example 44] |
| 0.05 to 30 | 112 to 121 | Cc1cn(C[C@H]2CCCN(C(=O)[C@H]3CN([C@H]4c5ccccc5CCc5cc(Cl)cnc54)CCN3C(=O)OC3CCCCC3)C2)cn1 [Example 321] |
| – | 123 to 132 | CC(C)OC(=O)N1CCN([C@@H]2c3ccc(Cl)cc3CCc3cc(Br)cnc32)C[C@@H]1C(=O)N1CCC[C@H](Cn2ccnc2)C1 [Example 19] |
| – | 122 to 127 | Cc1cn(CC2CCCN(C(=O)C3CN(C4c5ccc(Cl)cc5CCc5cccnc54)CCN3C(=O)OC3CCCCC3)C2)cn1 (stereo not drawn) [47(A)] |
| – | 111 to 125 | Cc1nccn1CC1CCCN(C(=O)C2CN(C3c4ccc(Cl)cc4CCc4cccnc43)CCN2C(=O)OC(C)C)C1 (single isomer, unassigned) [Example 39] |
| – | 128 to 133 | Cc1nccn1CC1CCCN(C(=O)C2CN(C3c4ccc(Cl)cc4CCc4cc(Br)cnc43)CCN2C(=O)OC(C)(C)C)C1 (stereo not drawn) [Example 4] |
| – | 137 to 139 | CC(C)(C)NC(=O)N1CCN(C2c3ccc(Cl)cc3CCc3cc(Br)cnc32)C[C@@H]1C(=O)N1CCC[C@@H]1Cn1ccnc1 (stereo partly drawn) [Example 21] |
| – | 107 to 112 | Cc1nccn1CC1CCCN(C(=O)C2CN(C3c4ccc(Cl)cc4CCc4cccnc43)CCN2C(=O)OC(C)C)C1 (single isomer, unassigned) [Example 40] |
| – | 95 to 111 | Cc1cn(CC2CCCN(C(=O)C3CN(C4c5ccc(Cl)cc5CCc5cccnc54)CCN3C(=O)OC(C)C)C2)cn1 (stereo not drawn) [Example 37] |
| – | 79 to 81 | CCc1cn(CC2CCCN(C(=O)C3CN(C4c5ccc(Cl)cc5CCc5cccnc54)CCN3C(=O)OC(C)(C)C)C2)cn1 (stereo not drawn) [35(D)] |
| – | 106 to 125 | Cc1ncn(CC2CCCN(C(=O)C3CN(C4c5ccc(Cl)cc5CCc5cccnc54)CCN3C(=O)OC3CCCCC3)C2)c1C (single isomer, unassigned) [47(H)] |
| – | 124 to 143 | CC(C)(C)OC(=O)N1CCN(C2c3ccc(Cl)cc3CCc3cccnc32)CC1C(=O)N1CCCC(Cn2ccnc2)C1 (stereo not drawn) [Example 25] |
